Data published in ChEMBL document CHEMBL5678804 (Cancer Cell, 2011).
The source made the active and inactive calls. The calls are words filed in the database; no cut-off is given here.

Legend:
[1] = target: Tyrosine-protein kinase ZAP-70 (Homo sapiens, UniProt P43403); experiment: Inhibition of human wild type ZAP70 using PolyEY as substrate preincubated for 2 hrs followed by ATP addition and measured every 2 mins for […] by spectrophotometric analysis
[2] = target: cAMP-dependent protein kinase catalytic subunit PRKX (Homo sapiens, UniProt P51817); experiment: Inhibition of human wild type PRKX using RBER-GSK3([…] to […]) as substrate preincubated for 2 hrs followed by ATP addition and measured every 2 mins for […] by spectrophotometric analysis
Sequence of cAMP-dependent protein kinase catalytic subunit PRKX (P51817 whole entry): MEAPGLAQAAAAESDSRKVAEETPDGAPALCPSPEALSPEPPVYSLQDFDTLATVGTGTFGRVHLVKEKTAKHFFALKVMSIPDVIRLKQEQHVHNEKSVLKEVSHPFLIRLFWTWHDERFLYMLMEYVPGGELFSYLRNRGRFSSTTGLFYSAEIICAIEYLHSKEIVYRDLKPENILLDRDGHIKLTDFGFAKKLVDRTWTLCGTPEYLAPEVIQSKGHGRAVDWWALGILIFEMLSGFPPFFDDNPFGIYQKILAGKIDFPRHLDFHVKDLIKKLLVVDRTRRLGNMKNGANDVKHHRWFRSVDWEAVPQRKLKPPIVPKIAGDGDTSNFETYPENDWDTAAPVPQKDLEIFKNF

[3] = target: Protein kinase C gamma type (Homo sapiens, UniProt P05129); experiment: Inhibition of human wild type PKC gamma using 3xChocktide-PKC(19to 31) as substrate preincubated for 2 hrs followed by ATP addition and measured every 2 mins for […] by spectrophotometric analysis
[4] = target: Mitogen-activated protein kinase kinase kinase 14 (Homo sapiens, UniProt Q99558); experiment: Inhibition of human wild type NIK using RBER-CHKtide as substrate preincubated for 2 hrs followed by ATP addition and measured every 2 mins for […] by spectrophotometric analysis
[5] = target: Ribosomal protein S6 kinase alpha-6 (Homo sapiens, UniProt Q9UK32); experiment: Inhibition of human wild type RSK4 using RBER-GSK3([…] to […]) as substrate preincubated for 2 hrs followed by ATP addition and measured every 2 mins for […] by spectrophotometric analysis
[6] = target: Phosphorylase b kinase gamma catalytic chain, skeletal muscle/heart isoform (Homo sapiens, UniProt Q16816); experiment: Inhibition of human wild type PHKgamma1 using 3xChocktide-PKC([…]-[…]) as substrate preincubated for 2 hrs followed by ATP addition and measured every 2 mins for […] by spectrophotometric analysis
BaF3 [7] = experiment: Antitumor activity against mouse BaF3 cells harbouring BCR-ABL1 T315I mutant xenografted in Balb/c mouse model assessed as reduction in leukemia cell burden in spleen at 100 mg/kg, po administered twice daily; format: functional, organism-based
[8] = target: Serine/threonine-protein kinase 25 (Homo sapiens, UniProt O00506); experiment: Inhibition of human wild type STK25 using Casein as substrate preincubated for 2 hrs followed by ATP addition and measured every 2 mins for […] by spectrophotometric analysis
Aurora kinase A = Aurora kinase A (Homo sapiens, UniProt O14965); experiment: Inhibition of human wild type AuroraA using bio-4xCHKT as substrate preincubated for 2 hrs followed by ATP addition and measured every 2 mins for […] by spectrophotometric analysis
CDK3/Cyclin E = CDK3/Cyclin E (Homo sapiens, UniProt Q00526); experiment: Inhibition of human wild type CDK3/cyclinE using RBER-CHKtide as substrate preincubated for 2 hrs followed by ATP addition and measured every 2 mins for […] by spectrophotometric analysis; format: protein-complex assay
[9] = target: Mitogen-activated protein kinase 13 (Homo sapiens, UniProt O15264); experiment: Inhibition of human wild type p38 delta using RBER-CHKtide as substrate preincubated for 2 hrs followed by ATP addition and measured every 2 mins for […] by spectrophotometric analysis
Sequence of Mitogen-activated protein kinase 13 (O15264 whole entry): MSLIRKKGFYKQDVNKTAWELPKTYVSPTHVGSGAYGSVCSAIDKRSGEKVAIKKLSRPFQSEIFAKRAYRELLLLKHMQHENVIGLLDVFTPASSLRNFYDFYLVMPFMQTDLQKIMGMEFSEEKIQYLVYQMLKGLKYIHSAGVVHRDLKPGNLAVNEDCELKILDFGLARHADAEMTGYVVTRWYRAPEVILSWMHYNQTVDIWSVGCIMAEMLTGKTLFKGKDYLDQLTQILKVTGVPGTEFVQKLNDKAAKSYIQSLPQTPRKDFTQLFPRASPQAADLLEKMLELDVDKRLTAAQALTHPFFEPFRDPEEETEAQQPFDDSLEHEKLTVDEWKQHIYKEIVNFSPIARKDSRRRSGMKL

[10] = target: Dual specificity protein kinase CLK1 (Homo sapiens, UniProt P49759); experiment: Inhibition of human wild type CLK1 using autophos as substrate preincubated for 2 hrs followed by ATP addition and measured every 2 mins for […] by spectrophotometric analysis
[11] = target: Serine/threonine-protein kinase A-Raf (Homo sapiens, UniProt P10398); experiment: Inhibition of human ARAF preincubated for 2 hrs followed by ATP addition and measured every 2 mins for […] by spectrophotometric analysis
[12] = target: PAS domain-containing serine/threonine-protein kinase (Homo sapiens, UniProt Q96RG2); experiment: Inhibition of human wild type PASK using RBER-CHKtide as substrate preincubated for 2 hrs followed by ATP addition and measured every 2 mins for […] by spectrophotometric analysis
Sequence of PAS domain-containing serine/threonine-protein kinase (Q96RG2 whole entry, the tested form may be a part): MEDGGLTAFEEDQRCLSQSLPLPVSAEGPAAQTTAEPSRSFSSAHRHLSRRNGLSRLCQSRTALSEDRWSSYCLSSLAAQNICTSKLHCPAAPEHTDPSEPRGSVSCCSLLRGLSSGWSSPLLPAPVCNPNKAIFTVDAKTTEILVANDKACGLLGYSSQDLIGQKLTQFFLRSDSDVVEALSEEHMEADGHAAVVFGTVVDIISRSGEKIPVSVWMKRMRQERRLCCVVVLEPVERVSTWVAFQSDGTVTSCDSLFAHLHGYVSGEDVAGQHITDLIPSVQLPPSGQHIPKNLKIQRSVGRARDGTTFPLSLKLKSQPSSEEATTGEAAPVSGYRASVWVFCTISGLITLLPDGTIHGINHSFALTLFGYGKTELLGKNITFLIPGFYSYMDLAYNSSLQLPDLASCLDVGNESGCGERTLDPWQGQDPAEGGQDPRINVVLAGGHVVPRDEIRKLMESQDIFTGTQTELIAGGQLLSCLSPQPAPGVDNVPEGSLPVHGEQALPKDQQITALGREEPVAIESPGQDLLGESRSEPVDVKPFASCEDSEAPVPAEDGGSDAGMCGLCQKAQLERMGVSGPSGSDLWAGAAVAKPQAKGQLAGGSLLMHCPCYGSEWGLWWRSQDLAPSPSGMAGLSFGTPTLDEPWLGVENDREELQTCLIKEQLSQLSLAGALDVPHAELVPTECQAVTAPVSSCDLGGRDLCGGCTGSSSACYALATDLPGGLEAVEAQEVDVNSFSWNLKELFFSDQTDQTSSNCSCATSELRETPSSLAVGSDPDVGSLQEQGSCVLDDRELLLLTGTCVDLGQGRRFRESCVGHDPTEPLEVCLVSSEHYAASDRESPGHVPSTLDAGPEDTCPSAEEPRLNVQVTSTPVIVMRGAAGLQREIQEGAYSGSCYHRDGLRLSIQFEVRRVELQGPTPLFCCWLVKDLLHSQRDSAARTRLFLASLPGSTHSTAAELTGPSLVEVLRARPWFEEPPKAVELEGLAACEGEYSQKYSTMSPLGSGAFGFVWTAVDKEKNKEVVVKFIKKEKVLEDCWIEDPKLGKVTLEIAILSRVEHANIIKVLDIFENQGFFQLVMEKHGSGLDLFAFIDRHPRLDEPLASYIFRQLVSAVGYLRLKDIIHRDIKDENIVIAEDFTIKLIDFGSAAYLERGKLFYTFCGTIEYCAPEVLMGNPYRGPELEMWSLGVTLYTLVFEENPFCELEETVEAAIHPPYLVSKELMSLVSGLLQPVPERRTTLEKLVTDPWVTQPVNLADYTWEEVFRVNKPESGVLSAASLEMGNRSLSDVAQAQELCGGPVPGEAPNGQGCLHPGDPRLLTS

[13] = target: Dual specificity tyrosine-phosphorylation-regulated kinase 3 (Homo sapiens, UniProt O43781); experiment: Inhibition of human wild type DYRK3 using RBER-IRStide as substrate preincubated for 2 hrs followed by ATP addition and measured every 2 mins for […] by spectrophotometric analysis
Sequence of Dual specificity tyrosine-phosphorylation-regulated kinase 3 (O43781 whole entry): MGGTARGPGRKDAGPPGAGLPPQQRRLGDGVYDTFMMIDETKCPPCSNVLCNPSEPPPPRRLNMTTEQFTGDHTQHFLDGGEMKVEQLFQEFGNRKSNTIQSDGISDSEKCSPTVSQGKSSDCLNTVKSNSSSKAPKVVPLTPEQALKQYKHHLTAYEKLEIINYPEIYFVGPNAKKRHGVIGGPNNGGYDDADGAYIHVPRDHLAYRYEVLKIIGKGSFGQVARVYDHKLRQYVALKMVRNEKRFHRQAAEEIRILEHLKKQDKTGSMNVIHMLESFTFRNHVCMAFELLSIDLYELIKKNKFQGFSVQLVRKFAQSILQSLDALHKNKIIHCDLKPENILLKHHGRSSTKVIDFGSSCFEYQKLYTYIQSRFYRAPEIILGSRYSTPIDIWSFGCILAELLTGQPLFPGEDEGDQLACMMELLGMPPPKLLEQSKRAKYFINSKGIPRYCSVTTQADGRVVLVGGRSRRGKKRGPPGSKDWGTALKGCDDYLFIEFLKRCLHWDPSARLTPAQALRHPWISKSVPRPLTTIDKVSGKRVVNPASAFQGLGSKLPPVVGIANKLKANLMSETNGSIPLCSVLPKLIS

[14] = target: Serine/threonine-protein kinase ULK2 (Homo sapiens, UniProt Q8IYT8); experiment: Inhibition of human wild type ULK2 using Casein as substrate preincubated for 2 hrs followed by ATP addition and measured every 2 mins for […] by spectrophotometric analysis
Sequence of Serine/threonine-protein kinase ULK2 (Q8IYT8 whole entry): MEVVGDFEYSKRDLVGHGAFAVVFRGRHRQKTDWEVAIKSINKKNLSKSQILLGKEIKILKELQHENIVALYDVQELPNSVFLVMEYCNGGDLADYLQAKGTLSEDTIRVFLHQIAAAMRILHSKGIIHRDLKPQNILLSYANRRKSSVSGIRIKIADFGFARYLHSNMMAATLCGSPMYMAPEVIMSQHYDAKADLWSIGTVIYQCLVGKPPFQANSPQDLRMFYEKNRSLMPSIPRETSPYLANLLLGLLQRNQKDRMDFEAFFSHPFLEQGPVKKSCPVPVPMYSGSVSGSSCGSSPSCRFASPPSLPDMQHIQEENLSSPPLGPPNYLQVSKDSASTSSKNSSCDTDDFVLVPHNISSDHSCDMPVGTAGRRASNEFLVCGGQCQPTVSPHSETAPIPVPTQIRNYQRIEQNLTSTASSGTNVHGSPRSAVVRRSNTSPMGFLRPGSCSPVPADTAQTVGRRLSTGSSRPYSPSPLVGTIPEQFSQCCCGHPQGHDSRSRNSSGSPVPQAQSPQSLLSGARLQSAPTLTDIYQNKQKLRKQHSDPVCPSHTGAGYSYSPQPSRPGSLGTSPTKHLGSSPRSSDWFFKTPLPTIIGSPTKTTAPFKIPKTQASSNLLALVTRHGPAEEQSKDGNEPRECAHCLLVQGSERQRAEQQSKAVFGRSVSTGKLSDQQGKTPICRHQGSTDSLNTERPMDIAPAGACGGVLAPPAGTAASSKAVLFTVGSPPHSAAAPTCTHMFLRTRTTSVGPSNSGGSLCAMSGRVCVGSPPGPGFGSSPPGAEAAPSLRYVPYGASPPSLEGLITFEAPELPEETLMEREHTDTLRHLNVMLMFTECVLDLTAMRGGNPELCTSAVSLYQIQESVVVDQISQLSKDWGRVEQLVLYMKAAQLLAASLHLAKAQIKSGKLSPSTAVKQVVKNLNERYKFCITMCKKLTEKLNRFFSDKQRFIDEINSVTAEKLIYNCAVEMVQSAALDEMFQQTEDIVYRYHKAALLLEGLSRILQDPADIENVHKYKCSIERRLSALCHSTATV

[15] = target: Mitogen-activated protein kinase kinase kinase 20 (Homo sapiens, UniProt Q9NYL2); experiment: Inhibition of human wild type ZAK using MBP as substrate preincubated for 2 hrs followed by ATP addition and measured every 2 mins for […] by spectrophotometric analysis
[16] = target: Mitogen-activated protein kinase kinase kinase 5 (Homo sapiens, UniProt Q99683); experiment: Inhibition of human wild type ASK1 using RBER-GSK3([…] to […]) as substrate preincubated for 2 hrs followed by ATP addition and measured every 2 mins for […] by spectrophotometric analysis
[17] = target: Mitogen-activated protein kinase kinase kinase kinase 4 (Homo sapiens, UniProt O95819); experiment: Inhibition of human wild type HGK using Casein as substrate preincubated for 2 hrs followed by ATP addition and measured every 2 mins for […] by spectrophotometric analysis
[18] = target: Serine/threonine-protein kinase Nek1 (Homo sapiens, UniProt Q96PY6); experiment: Inhibition of human wild type NEK1 using RBER-CHKtide as substrate preincubated for 2 hrs followed by ATP addition and measured every 2 mins for […] by spectrophotometric analysis
[19] = target: Mitogen-activated protein kinase kinase kinase kinase 2 (Homo sapiens, UniProt Q12851); experiment: Inhibition of human wild type GCK using Chocktide-PKC(19t o 31) as substrate preincubated for 2 hrs followed by ATP addition and measured every 2 mins for […] by spectrophotometric analysis
[20] = system: Tyrosine-protein kinase ABL1 (Homo sapiens), P00519 [T315I]; details: time 2.0 hrs
[21] = target: Fibroblast growth factor receptor 4 (Homo sapiens, UniProt P22455); experiment: Inhibition of human wild type FGFR4 using PolyEY as substrate preincubated for 2 hrs followed by ATP addition and measured every 2 mins for […] by spectrophotometric analysis
CDK1/Cyclin A = CDK1/Cyclin A (Homo sapiens, UniProt P06493); experiment: Inhibition of human wild type CDK1/cyclinA using RBER-CHKtide as substrate preincubated for 2 hrs followed by ATP addition and measured every 2 mins for […] by spectrophotometric analysis; format: protein-complex assay
Sequence of CDK1/Cyclin A (P06493 whole entry): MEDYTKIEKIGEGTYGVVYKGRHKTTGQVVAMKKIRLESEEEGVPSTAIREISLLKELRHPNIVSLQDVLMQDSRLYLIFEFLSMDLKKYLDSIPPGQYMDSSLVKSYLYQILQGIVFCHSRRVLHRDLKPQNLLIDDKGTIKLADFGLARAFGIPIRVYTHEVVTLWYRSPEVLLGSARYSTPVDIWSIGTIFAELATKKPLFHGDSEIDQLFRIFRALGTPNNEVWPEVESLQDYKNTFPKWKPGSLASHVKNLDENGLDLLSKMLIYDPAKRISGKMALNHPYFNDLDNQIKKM
Sequence of CDK1/Cyclin A (P20248 whole entry, further chain): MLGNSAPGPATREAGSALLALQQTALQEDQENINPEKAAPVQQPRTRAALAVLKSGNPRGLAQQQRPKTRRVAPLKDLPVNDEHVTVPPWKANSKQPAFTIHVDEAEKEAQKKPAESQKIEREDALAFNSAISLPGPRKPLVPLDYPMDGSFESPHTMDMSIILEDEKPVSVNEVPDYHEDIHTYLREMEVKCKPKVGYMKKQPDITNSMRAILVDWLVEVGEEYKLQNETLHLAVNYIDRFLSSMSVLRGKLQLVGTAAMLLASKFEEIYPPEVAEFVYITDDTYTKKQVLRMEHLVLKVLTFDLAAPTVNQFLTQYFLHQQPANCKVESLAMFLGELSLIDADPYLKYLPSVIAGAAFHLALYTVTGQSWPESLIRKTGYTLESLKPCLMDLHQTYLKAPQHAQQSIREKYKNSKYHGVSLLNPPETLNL

BaF3 [22] = experiment: Antitumor activity against mouse BaF3 cells harbouring BCR-ABL1 T315I mutant xenografted in Balb/c mouse model assessed as prolongation of animal survival at 100 mg/kg, po administered once daily for 21 days; format: functional, organism-based; details: time 21.0 day
[23] = target: Tyrosine-protein kinase JAK1 (Homo sapiens, UniProt P23458); experiment: Inhibition of human wild type JAK1 using RBER-IRStide as substrate preincubated for 2 hrs followed by ATP addition and measured every 2 mins for […] by spectrophotometric analysis
[24] = target: Glycogen synthase kinase-3 alpha (Homo sapiens, UniProt P49840); experiment: Inhibition of human wild type GSK3 alpha using SUPT5 754to 837 as substrate preincubated for 2 hrs followed by ATP addition and measured every 2 mins for […] by spectrophotometric analysis
BaF3 [25] = experiment: Antileukemic activity against mouse BaF3 cells harbouring BCR-ABL1 T315I mutant non-transduced with 5-FU treated bone marrow xenografted in Balb/c mouse assessed as reduction in pleural effusions at 60 mg/kg, po administered twice daily; format: functional, organism-based

Sequence of Tyrosine-protein kinase ZAP-70 (P43403 whole entry): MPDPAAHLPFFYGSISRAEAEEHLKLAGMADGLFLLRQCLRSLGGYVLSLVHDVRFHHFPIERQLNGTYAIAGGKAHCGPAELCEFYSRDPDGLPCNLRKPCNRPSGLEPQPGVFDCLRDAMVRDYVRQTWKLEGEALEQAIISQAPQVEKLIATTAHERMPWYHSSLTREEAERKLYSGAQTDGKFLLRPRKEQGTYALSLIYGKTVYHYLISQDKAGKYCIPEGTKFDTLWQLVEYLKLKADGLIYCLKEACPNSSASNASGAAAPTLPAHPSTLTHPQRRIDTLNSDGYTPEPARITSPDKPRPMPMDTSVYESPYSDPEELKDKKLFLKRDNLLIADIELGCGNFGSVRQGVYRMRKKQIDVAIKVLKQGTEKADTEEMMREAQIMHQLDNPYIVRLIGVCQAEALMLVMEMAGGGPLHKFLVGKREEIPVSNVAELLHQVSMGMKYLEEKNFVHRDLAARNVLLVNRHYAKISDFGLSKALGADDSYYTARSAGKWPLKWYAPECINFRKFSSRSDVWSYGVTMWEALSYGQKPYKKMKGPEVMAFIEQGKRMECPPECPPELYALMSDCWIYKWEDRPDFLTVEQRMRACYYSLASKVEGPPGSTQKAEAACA

## CNC(=O)c1cc(Oc2ccc(NC(=O)Nc3cc(C(C)(C)C)nn3-c3ccc4ncccc4c3)c(F)c2)ccn1 [REBASTINIB]
[1]
  IC50: > 1000 nM
[2]
  IC50: > 1000 nM
[3]
  IC50: > 1000 nM
[4]
  IC50: > 1000 nM
[5]
  IC50: > 1000 nM
[6]
  IC50: > 1000 nM
BaF3 [7]
  Activity: Active
[8]
  IC50: > 1000 nM
Aurora kinase A
  IC50: > 5000 nM
CDK3/Cyclin E
  IC50: > 1000 nM
[9]
  IC50: > 1000 nM
[10]
  IC50: > 1000 nM
[11]
  IC50: 230 nM
[12]
  IC50: > 1000 nM
[13]
  IC50: 710 nM
[14]
  IC50: 320 nM
[15]
  IC50: 90 nM
[16]
  IC50: > 1000 nM
[17]
  IC50: 45 nM
[18]
  IC50: > 1000 nM
[19]
  IC50: 230 nM
[20]
  T1/2: 8.97 h
[21]
  IC50: 170 nM
CDK1/Cyclin A
  IC50: > 1000 nM
BaF3 [22]
  Activity: Active
[23]
  IC50: 850 nM
[24]
  IC50: > 1000 nM
BaF3 [25]
  Activity: Active
